According to patent US8354414B2, “Substituted bicyclic pyrimidines” (Cephalon, Inc, priority 2006, dated 2013):
Like-named read-outs stand apart in the source and are kept apart here.

Columns and labels:
CDK5/GST-p25 = molecular target: T1, CDK5/GST-p25 (Homo sapiens, UniProt Q00535); experiment: Inhibition of CDK5/GST-p25 kinase activity (ELISA with time-resolved fluorescence readout); type: biochemical
T1 construct: The final construct, encoding for full-length human CDK5; made in house; host or cells: Sf21 insect cells (baculovirus co-infection)
Summary of the method: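 The substrate, GST-Rb(773-928), was immobilised on plates and phosphorylated for 20 min at 37 °C by 2 ng/ml CDK5/GST-p25 in HEPES pH 7.2 with 10 µM ATP and 10 mM MgCl2. Both proteins were human and co-expressed in insect cells. Ser-780 phosphorylation was read by europium time-resolved fluorescence and converted to IC50.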

His6-GSK-3β = molecular target: T2, His6-GSK-3β (Homo sapiens, UniProt P49841); experiment: Inhibition of His6-GSK-3β kinase activity (ELISA-based format, time-resolved fluorescence readout); type: biochemical; settings: read-out: GSK3β IC50
T2 construct: made in house; host or cells: Sf21 insect cells (baculovirus)
Summary of the method: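 Plate-bound recombinant GST-Rb substrate was phosphorylated for 30 min at 37° C by baculovirus-expressed His6-GSK-3β (200 ng/ml) at 20 μM ATP, 10 mM MgCl2, 2.5% DMSO. Europium time-resolved fluorescence of anti-phospho-Ser780 Rb signal gave inhibition, fitted to IC50.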

T1 sequence (Q00535 whole entry): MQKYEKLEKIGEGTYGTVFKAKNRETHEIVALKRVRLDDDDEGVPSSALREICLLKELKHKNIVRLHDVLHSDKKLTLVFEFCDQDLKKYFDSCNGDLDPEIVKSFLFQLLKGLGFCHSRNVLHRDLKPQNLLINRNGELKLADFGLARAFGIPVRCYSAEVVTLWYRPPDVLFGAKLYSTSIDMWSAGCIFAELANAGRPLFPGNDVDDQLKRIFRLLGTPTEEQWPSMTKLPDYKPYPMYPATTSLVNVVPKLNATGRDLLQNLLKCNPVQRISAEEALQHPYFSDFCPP
T1 sequence (Q15078 108-307 partner limits assumed): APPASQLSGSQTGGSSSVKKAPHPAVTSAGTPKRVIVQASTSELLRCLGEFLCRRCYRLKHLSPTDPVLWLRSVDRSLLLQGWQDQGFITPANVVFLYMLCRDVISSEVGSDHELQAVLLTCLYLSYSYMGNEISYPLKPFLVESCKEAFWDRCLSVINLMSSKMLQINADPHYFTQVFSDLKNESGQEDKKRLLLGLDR
T2 sequence (P49841 2-419): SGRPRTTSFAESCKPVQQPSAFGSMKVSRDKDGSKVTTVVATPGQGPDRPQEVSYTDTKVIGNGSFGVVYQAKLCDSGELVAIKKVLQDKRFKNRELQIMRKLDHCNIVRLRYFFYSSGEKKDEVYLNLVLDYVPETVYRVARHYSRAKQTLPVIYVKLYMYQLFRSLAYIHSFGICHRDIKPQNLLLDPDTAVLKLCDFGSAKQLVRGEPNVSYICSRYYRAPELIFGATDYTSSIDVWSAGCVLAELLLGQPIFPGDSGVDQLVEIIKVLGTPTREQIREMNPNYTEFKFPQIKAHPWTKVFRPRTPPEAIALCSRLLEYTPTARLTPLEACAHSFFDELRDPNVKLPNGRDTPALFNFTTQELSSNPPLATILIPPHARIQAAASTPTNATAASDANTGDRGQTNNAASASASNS

SMILES	IC50 (CDK5/GST-p25; class symbols) [nM]	IC50 (His6-GSK-3β; class symbols) [nM]	melting point	IC50 (His6-GSK-3β; numeric bounds) [nM]	inhibition at 10 µM (CDK5/GST-p25) [%]	IC50 (CDK5/GST-p25; numeric bounds) [nM]
O=C1Nc2ccccc2C1c1ncnc2nn(C3CCCC3)cc12 (stereo not drawn) [Example 37, 3-(2-Cyclopentyl-2H-pyrazolo[3,4-d]pyrimidin-4-yl)-1,3-dihydro-indo-2-one]	300 to 3000	300 to 3000	289 to 292 °C			
CCCn1cc2c(C3C(=O)Nc4ccc(C#N)cc43)nc(NCCc3cccnc3)nc2n1 (stereo not drawn) [Example 185, 2-Oxo-3-[2-propyl-6-(2-pyridin-3-yl-ethylamino)-2H-pyrazolo [3,4-d]pyrimidin-4-yl]-2,3-dihydro-1H-indole-5-carbonitrile]	< 300	< 300	302 to 305 °C			
COCCn1cc2c(C3C(=O)Nc4ccc(Br)cc43)nc(NCCCN(C)C)nc2n1 (stereo not drawn) [Example 233, 5-Bromo-3-[6-(3-dimethylamino-propylamino)-2-(2-methoxy-ethyl)-2H-pyrazolo [3,4-d]pyrimidin-4-yl]-1,3-dihydro-indol-2-one]	< 300	< 300	297 to 298 °C			
Cn1nc([N+](=O)[O-])c2c(C3C(=O)Nc4ccc(C#N)cc43)ncnc21 (stereo not drawn) [Example 148, 3-(1-Methyl-3-nitro-1H-pyrazolo[3,4-d]pyrimidin-4-yl)-2-oxo-2,3-dihydro-1H-indole-5-carbonitrile]	> 10000	> 10000	> 300 °C (dec.)			
CCCn1cc2c(C3C(=O)Nc4ccc(S(=O)(=O)N(C)C)cc43)nc(Cl)nc2n1 (stereo not drawn) [Example 204, 3-(6-Chloro-2-propyl-2H-pyrazolo [3,4-d]pyrimidin-4-yl)-2-oxo-2,3-dihydro-1H-indole-5-sulfonic acid dimethylamide]	300 to 3000		> 300 °C	> 3000		
CCCn1cc2c(C3C(=O)Nc4ccc(Br)cc43)nc(NCCCN)nc2n1 (stereo not drawn) [Example 199, 3-[6-(3-Amino-propylamino)-2-propyl-2H-pyrazolo [3,4-d]pyrimidin-4-yl]-5-bromo-1,3-dihydro-indol-2-one]	< 300	< 300	> 300 °C			
C=CCn1cc2c(C3C(=O)Nc4ccc(C#N)cc43)ncnc2n1 (stereo not drawn) [Example 76, 3-(2-Allyl-2H-pyrazolo[3,4-d]pyrimidin-4-yl)-2-oxo-2,3-dihydro-1H-indole-5-carbonitrile]	< 300	300 to 3000	> 300 °C			
CCCn1cc2c(C3C(=O)Nc4ccc(Br)cc43)nc(NC[C@@H](C)N)nc2n1 (stereo partly drawn) [Example 369, 3-[6-(2-(R)-Amino-propylamino)-2-propyl-2H-pyrazolo[3,4-d]pyrimidin-4-yl]-5-bromo-1,3-dihydro-indol-2-one]	300 to 3000	< 300	247 to 250 °C			
COCCNc1nc(C2C(=O)Nc3ccc(Cl)cc32)c2cn(CC(C)C)nc2n1 (stereo not drawn) [Example 272, 5-Chloro-3-[2-isobutyl-6-(2-methoxy-ethylamino)-2H-pyrazolo[3,4-d]pyrimidin-4-yl]-1,3-dihydro-indol-2-one]	< 300	< 300	286 to 289 °C			
CCOCCn1cc2c(C3C(=O)Nc4ccc(Br)cc43)nc(Cl)nc2n1 (stereo not drawn) [Example 236, 5-Bromo-3-[6-chloro-2-(2-ethoxy-ethyl)-2H-pyrazolo [3,4-d]pyrimidin-4-yl)-1,3-dihydro-indol-2-one]	> 10000	> 10000	260 to 263 °C			
O=C1Nc2cc(Cl)ccc2C1c1ncnc2nn(C3CCCC3)cc12 (stereo not drawn) [Example 32, 6-Chloro-3-(2-Cyclopentyl-2H-pyrazolo [3,4-d]pyrimidin-4-yl)-2-oxo-1,3-dihydro-indol-2-one]	300 to 3000		294 to 296 °C	> 3000		
O=C1Nc2c(F)cc(F)cc2C1c1ncnc2c1cnn2C1CCCC1 (stereo not drawn) [Example 61, 3-(1-cyclopentyl-1H-pyrazolo[3,4-d]pyrimidin-4-yl)-5,7-difluoro-1,3-dihydro-indol-2-one]	> 10000	> 10000	> 300 °C			
CCOCCn1cc2c(C3C(=O)Nc4ccc(Cl)cc43)nc(Cl)nc2n1 (stereo not drawn) [Example 211, 5-Chloro-3-[6-chloro-2-(2-ethoxy-ethyl)-2H-pyrazolo[3,4-d]pyrimidin-4-yl]-1,3-dihydro-indol-2-one]	> 10000	> 10000	> 300 °C			
N#Cc1cccc2c1NC(=O)C2c1ncnc2c1cnn2C1CCCCC1 (stereo not drawn) [Example 70, 3-(1-Cyclohexyl-1H-pyrazolo [3,4-d]pyrimidin-4-yl)-2-oxo-2,3-dihydro-1H-indole-7-carbonitrile]	> 10000	> 10000	> 300 °C			
Cn1cc2c(C3C(=O)Nc4ccc(Br)cc43)nc(NCCN)nc2n1 (stereo not drawn) [Example 303, 3-[6-(2-Amino-ethylamino)-2-methyl-2H-pyrazolo [3,4-d]pyrimidin-4-yl]-5-bromo-1,3-dihydro-indol-2-one]	< 300	300 to 3000	260 to 262 °C			
CCCn1cc2c(C3C(=O)Nc4ccc(C#N)cc43)nc(NCc3ccncc3)nc2n1 (stereo not drawn) [Example 186, 2-Oxo-3-{2-propyl-6-[(pyridine-4-ylmethyl)-amino]-2H-pyrazolo [3,4-d]pyrimidin-4-yl}-2,3-dihydro-1H-indole-5-carbonitrile]	< 300	< 300	299 to 302 °C			

Results, then the compound that gave them:

IC50 (CDK5/GST-p25; class symbols) [nM]	IC50 (His6-GSK-3β; class symbols) [nM]	melting point	IC50 (His6-GSK-3β; numeric bounds) [nM]	inhibition at 10 µM (CDK5/GST-p25) [%]	IC50 (CDK5/GST-p25; numeric bounds) [nM]	SMILES
> 10000	> 10000	270 to 273 °C				O=C1Nc2ccccc2C1c1nc(Cl)nc2nn(C3CCCC3)cc12 (stereo not drawn) [Example 152, 3-(6-Chloro-2-cyclopentyl-2H-pyrazolo[3,4-d]pyrimidin-4-yl)-1,3-dihydro-indol-2-one]
< 300	< 300	249 to 259 °C				COCCNc1nc(C2C(=O)Nc3ccc(Cl)cc32)c2cn(C3CCCC3)nc2n1 (stereo not drawn) [Example 277, 5-Chloro-3-[2-cyclopentyl-6-(2-methyoxy-ethylamino)-2H-pyrazolo[3,4-d]pyrimidin-4-yl]-1,3-dihydro-indol-2-one]
300 to 3000	< 300	192 °C (dec.)				CCCCCn1cc2c(C3C(=O)Nc4ccc(C(F)(F)F)cc43)nc(NCCN)nc2n1 (stereo not drawn) [Example 288, 3-[6-(2-Amino-ethylamino)-2-pentyl-2H-pyrazolo [3,4-d]pyrimidin-4-yl]-5-trifluoromethyl-1,3-dihydro-indol-2-one]
> 10000	< 300	282 to 286 °C				CC(C)CNc1nc(C2C(=O)Nc3ccc(Cl)cc32)c2cn(C3CCCC3)nc2n1 (stereo not drawn) [Example 280, 5-Chloro-3-(2-cyclopentyl-6-isobutylamino-2H-pyrazolo[3,4-d]pyrimidin-4-yl)-1,3-dihydro-indol-2-one]
> 10000	300 to 3000	176 to 179 °C				CN(C)CCCNc1nc(C2C(=O)Nc3ccc(Cl)cc32)c2cn(C3CCCC3)nc2n1 (stereo not drawn) [Example 377, 5-Chloro-3-[2-cyclopentyl-6-(3-dimethylamino-propylamino)-2H-pyrazolo [3,4-d]pyrimidin-4-yl]-1,3-dihydro-indol-2-one]
> 10000	< 300	> 300 °C				C=CCNc1nc(C2C(=O)Nc3ccc(C(F)(F)F)cc32)c2cn(C3CCCC3)nc2n1 (stereo not drawn) [Example 248, 3-(6-Allylamino-2-cyclopentyl-2H-pyrazolo[3,4-d]pyrimidin-4-yl)-5-trifluoromethyl-1,3-dihydro-indol-2-one]
	< 300	> 300 °C		67		C[C@@H](O)CNc1nc(C2C(=O)Nc3ccc(Br)cc32)c2cn(C3CCCC3)nc2n1 (stereo partly drawn) [Example 373]
< 300	< 300	> 300 °C				CC(=O)NCCNc1nc(C2C(=O)Nc3ccc(C#N)cc32)c2cn(C3CCCC3)nc2n1 (stereo not drawn) [Example 151, 3-(6-(2-acetylamino-ethylamino)-2-cyclopentyl-2H-pyrazolo [3,4-d]pyrimidin-4-yl)-2-oxo-2,3-dihydro-1H-indole-5-carbonitrile]
	< 300	> 300 °C		77		C[C@H](O)CNc1nc(C2C(=O)Nc3ccc(Br)cc32)c2cn(C3CCCC3)nc2n1 (stereo partly drawn) [Example 372]
	< 300	211 to 213 °C			> 3000	CN(C)CCNc1nc(C2C(=O)Nc3ccc(C(F)(F)F)cc32)c2cn(C3CCCC3)nc2n1 (stereo not drawn) [Example 251, 3-[2-Cyclopentyl-6-(2-dimethylamino-ethylamino)-2H-pyrazolo[3,4-d]pyrimidin-4-yl]-5-trifluoromethyl-1,3-dihydro-indol-2-one]
300 to 3000	< 300	290 to 293 °C				Cl.NCCNc1nc(C2C(=O)Nc3ccc(C(F)(F)F)cc32)c2cn(C3CCCC3)nc2n1 (stereo not drawn) [Example 252, 3-[6-(2-Amino-ethylamino)-2-cyclopentyl-2H-pyrazolo[3,4-d]pyrimidin-4-yl]-5-trifluoromethyl-1,3-dihydroindol-2-one hydrochloride salt]
> 10000		303 to 305 °C	> 3000			CC(C)Nc1nc(C2C(=O)Nc3ccccc32)c2cn(C3CCCC3)nc2n1 (stereo not drawn) [Example 245, 3-(2-Cyclopentyl-6-isopropylamino-2H-pyrazolo[3,4-d]pyrimidin-4-yl)-1,3-dihydro-indol-2-one]
